Assay [1] has as its target T1, CePRMT7 (Caenorhabditis elegans, UniProt Q9XW42).
T1 construct: made in house; host or cells: E. coli
Description: Radioisotope-based assay (SDS-PAGE, fluorography, densitometry), CePRMT7. The assay is classed as biochemical. Conditions: substrate HsH2B, 15 °C, read-out: % CePRMT7 residual activity. As to the method:
Based on these outcomes, we resolved to explore the effect on the capability to inhibit PRMT9 enzymatic activity of further reduction of the distance between the pharmacophoric moieties. […] After the experiment was repeated with 100, 250, and 500 μM concentrations of each inhibitor, half inhibition was observed only at a concentration of roughly 250 μM (Figure 4d).
[…]. The experiments were performed as reported in the Experimental procedures section. GST-HsPRMT9 (a) and GST-HsPRMT7 (b) were incubated with human GST-SF3B2 (401–550) peptide or recombinant HsH2B, respectively (1 μg of enzyme, 5 μg of substrate), 0.14 μM [^3H]SAM, and the indicated concentrations of tested compounds at the corresponding optimal reaction temperature (37 °C for HsPRMT9, 15 °C for HsPRMT7). C. elegans GST-tagged enzymes PRMT9 (c) and PRMT7 (d) were incubated with GST-CeSFTB-2 (99–248) fragment or recombinant HsH2B, respectively (1 μg of enzyme, 5 μg of substrate), 0.14 μM [^3H]SAM, and the indicated concentrations of tested compounds at the corresponding optimal reaction temperature (25 °C for CePRMT9, 15 °C for CePRMT7). After SDS-PAGE, the gels were treated as previously described[48] and densitometry analysis was done using ImageJ software, and data was plotted as normalized activity to the no inhibitor controls.
Human PRMT9, C. elegans PRMT9, human PRMT7, and C. elegans PRMT7 plasmids were sequenced, expressed in E. coli as GST-fusion proteins, and purified as previously described.[48] Substrates were also sequenced and purified as described [human GST-SF3B2 (401–550);[13]C. elegans SFTB-2;[48] human histone H2B (New England Biolabs, M2505S)]. Xenopus laevis histone H2B was expressed in E. coli and purified similarly to what was previously reported by Luger et al.[72]
Reactions consisting of approximately 1 μg of enzyme (human or C. elegans GST-tagged enzymes PRMT9 and PRMT7), reacted with approximately 5 μg of substrate [for human PRMT9, human GST-SF3B2 401–550 fragment; C. elegans PRMT9 with C. elegans GST-SFTB-2 (99–248) fragment, or recombinant human histone H2B from New England Biolabs (M2505S)], were incubated for the indicated time in reaction buffer {50 mM potassium HEPES buffer, 10 mM NaCl, 1 mM dithiothreitol (DTT), pH 8.0 with 0.7 μM S-adenosyl-L-[methyl-^3H]methionine (^3H-AdoMet, PerkinElmer Life Sciences, 82.7 Ci/mmol, 0.55 mCi/mL in 10 mM H2SO4/EtOH [9:1 (v/v)])} in a final reaction volume of 60 μL. Each reaction was incubated at the corresponding optimal reaction temperature (37 °C for human PRMT9, 25 °C for C. elegans PRMT9, and 15 °C for C. elegans and human PRMT7 enzymes. MTA was dissolved in water, and a wavelength scan was taken to determine the final concentration using the extinction coefficient. The final concentrations used are indicated in the figure legends. […]. EML734, EML736, and EML709 were also dissolved in DMSO, and further dilutions were made in DMSO for the working stocks. For controls, no inhibitor reactions were created by the addition of the respective solvent (water for MTA and DMSO for EPZ015666 and EML inhibitors).
After the reaction incubations with the various concentrations of inhibitors, the reactions were quenched by adding 0.2 volume of 5× SDS sample loading buffer, and subsequently, the reactions were run on a 12.6% polyacrylamide Tris gel. To collect the radioactive signal, the gels were then treated in the same way as previously described.[48]
After various exposures were collected to ensure linear detection, densitometry analysis was done using ImageJ software, and data were plotted as normalized activity to the no inhibitor controls.

The target of assay [2] is T2, human recombinant PRMT9 (Homo sapiens, UniProt Q6P2P2).
T2 construct: human recombinant PRMT9 (2–845; N-terminal FLAG-tag, C-terminal His6-tag); FLAG (N); His6 (C); purchased BPS BioScience 79124
T2 sequence (Q6P2P2 2-845): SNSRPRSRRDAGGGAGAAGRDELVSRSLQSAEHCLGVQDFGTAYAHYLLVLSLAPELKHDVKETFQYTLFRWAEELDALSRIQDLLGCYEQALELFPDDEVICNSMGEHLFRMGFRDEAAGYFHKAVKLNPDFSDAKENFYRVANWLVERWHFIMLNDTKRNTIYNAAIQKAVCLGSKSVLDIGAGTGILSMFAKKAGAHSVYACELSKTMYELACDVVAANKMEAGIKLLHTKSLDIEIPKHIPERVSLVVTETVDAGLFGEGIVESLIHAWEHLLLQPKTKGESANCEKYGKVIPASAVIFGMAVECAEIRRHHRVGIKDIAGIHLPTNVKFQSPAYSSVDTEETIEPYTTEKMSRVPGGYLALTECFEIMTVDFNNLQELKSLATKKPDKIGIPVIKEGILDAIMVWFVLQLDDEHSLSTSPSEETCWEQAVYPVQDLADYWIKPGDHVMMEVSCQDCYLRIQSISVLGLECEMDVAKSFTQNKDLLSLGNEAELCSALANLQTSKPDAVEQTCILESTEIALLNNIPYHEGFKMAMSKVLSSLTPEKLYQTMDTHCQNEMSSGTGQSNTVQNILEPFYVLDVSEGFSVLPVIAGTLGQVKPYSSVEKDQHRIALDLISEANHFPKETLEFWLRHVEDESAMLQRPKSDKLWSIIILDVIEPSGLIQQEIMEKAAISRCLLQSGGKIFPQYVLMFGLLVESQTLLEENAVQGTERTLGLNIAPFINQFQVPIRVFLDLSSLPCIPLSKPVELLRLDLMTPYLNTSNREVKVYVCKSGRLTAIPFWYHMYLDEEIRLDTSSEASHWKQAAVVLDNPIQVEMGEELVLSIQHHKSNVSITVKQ
Description: AlphaLISA PRMT9 activity assay (modified BPS kit, biotinylated SF3B2 peptide). The settings on record: PRMT9 0.105 μM, biotinylated SF3B2 (500–519) peptide 100 nM, SAM 25 μM. The assay is classed as biochemical. As to the method: Accordingly, all the enzymatic inhibition data were obtained by performing the assays in these optimized conditions.
The reaction was incubated for 60 min. Afterward, in each well, 5 μL of a 1:100 dilution of Primary antibody 28 (BPS BioScience, #52140Z3) in Detection buffer (BPS BioScience) and 5 μL of anti-Rabbit acceptor beads (PerkinElmer, #AL104C) were added to obtain a final concentration of 20 μg/mL.
For each incubation step, the OptiPlate was sealed with a protective foil to prevent evaporation and contamination. Donor and Acceptor beads were added to the mixture in subdued light.
The 100% activity (positive control) was reached using vehicle (DMSO), while 0% activity (negative control) was obtained without the protein. Data were analyzed by using Excel and Prism software. Values obtained for each compound are mean ± SD determined for three separate experiments.
Background: Bead proximity is the source of the signal in Alpha formats.

Remaining activity and IC50 data for four molecules are collected here from PMC10578352, “Identification of a Protein Arginine Methyltransferase 7 (PRMT7)/Protein Arginine Methyltransferase 9 (PRMT9) Inhibitor” (Journal of Medicinal Chemistry, 2023).

pIC50: −log10 of the molar value.

T1 sequence (Q9XW42 whole entry): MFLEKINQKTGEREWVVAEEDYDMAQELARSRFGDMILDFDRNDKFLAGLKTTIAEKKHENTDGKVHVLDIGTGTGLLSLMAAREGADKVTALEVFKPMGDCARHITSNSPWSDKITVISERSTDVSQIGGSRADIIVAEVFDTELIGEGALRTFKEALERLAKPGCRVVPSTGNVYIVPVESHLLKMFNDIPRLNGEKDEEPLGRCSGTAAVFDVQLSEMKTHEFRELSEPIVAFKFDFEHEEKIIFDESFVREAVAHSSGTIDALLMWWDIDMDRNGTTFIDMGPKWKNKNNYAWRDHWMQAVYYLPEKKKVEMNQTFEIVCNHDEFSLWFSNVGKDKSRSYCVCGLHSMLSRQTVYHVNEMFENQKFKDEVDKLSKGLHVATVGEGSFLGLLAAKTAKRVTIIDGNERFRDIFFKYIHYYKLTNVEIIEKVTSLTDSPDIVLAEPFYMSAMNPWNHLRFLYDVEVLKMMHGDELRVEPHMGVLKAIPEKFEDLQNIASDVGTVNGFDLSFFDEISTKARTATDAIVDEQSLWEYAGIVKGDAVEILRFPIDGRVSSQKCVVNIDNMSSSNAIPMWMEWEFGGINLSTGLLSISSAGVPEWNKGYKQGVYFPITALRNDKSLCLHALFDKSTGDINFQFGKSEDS

As usually defined, the pIC50 is the negative decadic logarithm of the IC50, by convention in mol/L. Regarding `COC(=O)c1cc(O)c2cc(NC(=O)NCCCNC(=N)NC[C@H]3O[C@@H](n4cnc5c(N)ncnc54)[C@H](O)[C@@H]3O)ccc2c1` [1a], in assay [1], the remaining activity at 100 µM came out at 19.6%, the remaining activity at 250 µM was 12.5% and the remaining activity at 500 µM was 0.92%. Further, the pIC50 in assay [2] is 6.05.

With `COC(=O)c1cc(O)c2cc(NC(=O)NCCCCNC(=N)NC[C@H]3O[C@@H](n4cnc5c(N)ncnc54)[C@H](O)[C@@H]3O)ccc2c1` [1b], in assay [1], the remaining activity at 100 µM was 34.8%, the remaining activity at 250 µM amounted to 8.62% and the remaining activity at 500 µM is 5.19%. In assay [2], the negative logarithm of the IC50 (pIC50) was 5.88.

Regarding `COC(=O)c1cc(O)c2cc(NC(=O)NCCCCCNC(=N)NC[C@H]3O[C@@H](n4cnc5c(N)ncnc54)[C@H](O)[C@@H]3O)ccc2c1` [1c], in assay [1], the remaining activity at 100 µM turned out to be 26.1%, the remaining activity at 250 µM was found to be 6.92% and the remaining activity at 500 µM is 2.32%. Besides, in assay [2], the pIC50 is 5.24.

Turning to `COC(=O)c1cc(O)c2cc(NC(=O)NCCCNC(=N)NC[C@H]3O[C@@H](n4cnc5c(N)ncnc54)[C@H](O)[C@@H]3O)cc(C(F)(F)F)c2c1` [1j, Methyl 6-(3-(3-(3-(((2R,3S,4R,5R)-5-(6-Amino-9H-purin-9-yl)-3,4-dihydroxytetrahydrofuran-2-yl)methyl)guanidino)propyl)ureido)-4-hydroxy-8-(trifluoromethyl)-2-naphthoate], in assay [2], the pIC50 was 6.70.
